# Laboratory results: patent US9861678B2, “Casein peptide for use in the treatment of uterine infections” (Mileutis Ltd., priority 2010, dated 2018)
# What was measured:
# [1] = system: dairy cows with clinical postpartum metritis; assay: Clinical study 1, low dose: casein hydrolysate vs antibiotics in post-partum bovine clinical metritis (safety and efficacy); assay type: in vivo; settings: for genital secretions (ranking): score 0-4 per Table 2
# Protocol: The effects of bovine casein hydrolysate in comparison with antibiotic drugs, was studied in dairy cows suffering from acute puerperal metritis (Sheldon et al., ibid 2006).
# The cows recruited for this study were lactating Holstein Friesian located in large dairy herd in Israel (longitude 34°40′E-35°30′E; latitude 30°30′N-33°01′N). The cows were milked 3 times a day. The herd used was free-stall barn with a size ranged from 300 to 350 milking cows.
# Cows are enrolled to the study provided that their physical condition is complied with the inclusion criteria as follows: • Cows with clinical postpartum metritis, • Cows with non-twins delivery, • Cows were not administered with intrauterine or systemic reproductive hormone therapy during the last 4 weeks, • Cows with no diagnosed morbidities, which may be potentially influence the outcome of treatment in the judgment of the investigator, • The herd managers agreed not to administer any intrauterine or reproductive hormonal therapy before examination of cows for this trial.
# In addition, cows were enrolled to the clinical study provided that they have none of the following characteristics (herein “exclusion criteria”): • Cows had abnormal internal genitalia (including adhesions) • Cows with diagnosis and or treatment of severe vaginitis, lameness, mastitis-ketosis and digestive disorders during the current post calving period or any other clinical disease requiring systemic treatment at enrollment, • Cows identified to be culled (not to be inseminated) after calving • Cows administrated with immunotherapy within 3 weeks prior to study entry, • Cows administrated with anti-inflammatory and/or anabolic therapies, either systemic or by feeding 2 weeks prior to study entry. • Cows which are suspected or with a diagnosis of retained fetal membranes at the time of the current calving. • Cows which are suspected or with a clinical evidence of acute puerperal metritis with a systemic effect • Cows which are indented to be removed for any reason from the farm in the current location.
# Cows in a proper physical condition (as defined above in the inclusion criteria and the exclusion criteria), that were diagnosed with confirmed clinical metritis, as determined by any one of the following clinical criteria, were enrolled to this clinical study:
# 1) cows must be febrile (i.e., morning rectal temperature more than 39.4° C.) and/or
# 2) cows must have a flaccid, non-retractable uterus that is located in the abdomen, a cervical diameter >7.5 cm, and a watery, mucopurulent, or fetid vulvar discharge.
# On day “0” (first day of the study), dairy heifers or primiparous or multiparous dairy cows from the same herd and within the same lactation and ages were randomly divided, using tables prepared in advance by the investigator, to receive one or other of the treatments. Within each table, cows were assigned to treatment in pairs, a cow for each group.
# Case study Arm (“arm 1”)—450 mg of bovine casine hydrolysate (Batch Number B100) administered in a 150 ml solution until completion of the arm's sample size.
# (§1) Control Arm (“arm 2”)—25 ml of Oxytetracycline dehydrate (200 mg/ml total of 5,000 mg) (Norbrook Laboratory, UK).
# (§2) Treatment was initiated at day “0” and was administered to the cows through transcervical intrauterine infusion using a sterile uterine catheter.
# Safety was determined by monitoring on days 0.3, 1, 2, 3, 7 and 14 post-treatment, the appearance of adverse events (as detailed below) or any sign of toxicity.
# In addition, the overall general impression from each cow was assessed and ranked according to the description on Table 1.
# Efficacy was assessed by measuring the rectal temperature; genital system morphology and the genital secretions at a first visit after the morning observation and milking, before the treatment, 6-8 hours after the treatment and then on days 1, 2, 3, 7 and 14 post treatment. In general, treatment success was assessed after a total of 14 days after treatment. […]
# [2] = system: dairy cows with clinical postpartum metritis; assay: Clinical study 2, high dose: casein hydrolysate vs antibiotics in post-partum bovine clinical metritis (safety and efficacy); assay type: in vivo, lactating Israel Holstein Friesian cows
# Protocol: The cows recruited for this study were lactating Israel Holstein Friesian located in a large dairy herd in Israel (longitude 34°40′E-35°30′E; latitude 30°30′N-33°01′N).
# Cows enrollment to the study with respect to the physical conditions, inclusion criteria and exclusion criteria were as detailed above for clinical study-1 with respect to the overall physical condition and with respect to the diagnosis with clinical post partum metritis. In addition, cows randomization was as detailed above.
# On day “0” (first day of the study) dairy heifers or primiparous or multiparous dairy cows from the same herd and with the same lactation and ages were randomly divided, using tables prepared in advance by the investigator, to receive one or other of the treatments. Within each table, cows were assigned to treatment in pairs, a cow for each group.
# Case study Arm (“arm 1”)—1350 mg of bovine casein hydrolysate (Batch Number B100) administered in a 150 ml solution 3 times.
# as §1, §2
# Safety and efficacy criteria are as detailed above for clinical study 1 (Example 2)
# The administrated veterinarian examined all cows and was in charge on the ranking of the genital secretions, from 1 to 4, based on the descriptions provided in Table 2 of clinical study 1 as well as the genital system morphology according to the description in Table 3 of clinical study 1 and the overall general impression from each cow according to the description on […].
smiles,measurement,setting,value
"CN(C)[C@@H]1C(O)=C(C(N)=O)C(=O)[C@@]2(O)C(O)=C3C(=O)c4c(O)cccc4[C@@](C)(O)[C@H]3[C@H](O)[C@@H]12 [Antibiotics, Oxytetracycline dehydrate]",cow's fever (rectal temperature),"[1]; 6-8 h after treatment, casein hydrolysate 450 mg or oxytetracycline 5,000 mg intrauterine",39.4 ± 0.66 °C
same,genital secretions (ranking),[1]; 6-8 h after treatment,3.0 ± 0.92
same,cow's fever (rectal temperature),"[1]; Before treatment (day = 0), casein hydrolysate 450 mg in 150 ml or oxytetracycline 5,000 mg, intrauterine infusion, 8 cows per arm",38.8 ± 0.26 °C
same,genital secretions (ranking),"[1]; Before treatment (day = 0), casein hydrolysate 450 mg or oxytetracycline 5,000 mg intrauterine",3.625 ± 0.517
same,cow's fever (rectal temperature),"[1]; Day 1 (22-32 h after treatment), casein hydrolysate 450 mg or oxytetracycline 5,000 mg intrauterine",39.1 ± 0.27 °C
same,genital secretions (ranking),[1]; Day 1 (22-32 h after treatment),2.12 ± 0.84
same,cow's fever (rectal temperature),"[1]; Day 2, casein hydrolysate 450 mg or oxytetracycline 5,000 mg intrauterine",39.1 ± 0.47 °C
same,genital secretions (ranking),[1]; Day 2,2.0 ± 0.92
same,cow's fever (rectal temperature),"[1]; Day 3, casein hydrolysate 450 mg or oxytetracycline 5,000 mg intrauterine",38.9 ± 0.37 °C
same,genital secretions (ranking),[1]; Day 3,2.0 ± 0.92
same,cow's fever (rectal temperature),"[1]; Day 7, casein hydrolysate 450 mg or oxytetracycline 5,000 mg intrauterine",38.9 ± 0.18 °C
same,genital secretions (ranking),[1]; Day 7,1.5 ± 0.75
same,cow's fever (rectal temperature),"[1]; Day 14, casein hydrolysate 450 mg or oxytetracycline 5,000 mg intrauterine",38.8 ± 0.41 °C
same,genital secretions (ranking),[1]; Day 14,1.5 ± 0.75
same,cow's fever (rectal temperature),"[2]; 6-8 h after treatment, casein hydrolysate 1350 mg or oxytetracycline 5,000 mg intrauterine",39.1 °C
same,cow's fever (rectal temperature),"[2]; Before treatment (day = 0), casein hydrolysate 1350 mg (150 ml solution 3 times) or oxytetracycline 5,000 mg, intrauterine, 4 and 3 cows",38.4 °C
same,cow's fever (rectal temperature),"[2]; Day 1 (22-32 h after treatment), casein hydrolysate 1350 mg or oxytetracycline 5,000 mg intrauterine",38.6 °C
same,cow's fever (rectal temperature),"[2]; Day 2, casein hydrolysate 1350 mg or oxytetracycline 5,000 mg intrauterine",38.4 °C
same,cow's fever (rectal temperature),"[2]; Day 3, casein hydrolysate 1350 mg or oxytetracycline 5,000 mg intrauterine",38.9 °C
same,cow's fever (rectal temperature),"[2]; Day 7, casein hydrolysate 1350 mg or oxytetracycline 5,000 mg intrauterine",38.3 °C
same,cow's fever (rectal temperature),"[2]; Day 14, casein hydrolysate 1350 mg or oxytetracycline 5,000 mg intrauterine",38.7 °C
